Source: ChEMBL document CHEMBL1201862, “PubChem BioAssay data set” (2004)
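A five-concentration, 48-hour dose response in 96-well plates underlies each endpoint, interpolated linearly between surrounding concentrations. Here, GI50 denotes the concentration required for 50% inhibition of growth.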 Activity calls are given as the source filed them. No stated cut-off is given here; in the data, active = GI50 up to about 1.1 µM and inactive = higher.

Key:
Assay in all cases: NCI tumour cell line growth inhibition, 48 h
786-0 = test system: 786-0
A498 = test system: A498
A549 = test system: A549
CAKI-1 = test system: CAKI-1
HL-60 = test system: HL-60
HOP-62 = test system: HOP-62
HT-29 = test system: HT-29
KM-20L2 = test system: KM-20L2
LXFL 529 = test system: LXFL 529
M14 = test system: M14
NCI-H226 = test system: NCI-H226
NCI-H23 = test system: NCI-H23
NCI-H460 = test system: NCI-H460
SF-268 = test system: SF-268
SF-539 = test system: SF-539
SNB-75 = test system: SNB-75

Measured: GI50

COC(=O)[C@@]1(O)CC(C)C=C1C=O (stereo partly drawn)
inactive: 786-0 60.5 µM | A498 > 100 µM | A549 24.6 µM | CAKI-1 > 100 µM | HL-60 22.1 µM | HOP-62 > 100 µM | HT-29 39.4 µM | KM-20L2 > 100 µM | LXFL 529 68.7 µM | M14 > 100 µM | NCI-H226 > 100 µM | NCI-H23 > 100 µM | NCI-H460 20.6 µM | SF-268 43.2 µM | SF-539 > 100 µM | SNB-75 > 100 µM

CCCCCCCCCCCCCCCCCC(=O)NCC(COP(=O)([O-])OCC[N+](C)(C)C)OC (stereo not drawn)
inactive: 786-0 1.5 µM | A498 3.03 µM | A549 10.3 µM | CAKI-1 2.44 µM | HL-60 1.16 µM | HOP-62 2.87 µM | HT-29 3.45 µM | KM-20L2 2.23 µM | LXFL 529 6.78 µM | M14 11.5 µM | NCI-H226 3.44 µM | NCI-H23 14.3 µM | NCI-H460 1.27 µM | SF-268 5.2 µM | SF-539 17.6 µM | SNB-75 5 µM

N#CC(/C(CCCC(=O)Nc1cccc([N+](=O)[O-])c1)=N\NC(=O)c1c(O)ccc2ccccc12)c1nc2ccccc2s1 (stereo not drawn)
inactive: 786-0 34.6 µM | A498 35.1 µM | A549 10.8 µM | CAKI-1 36.7 µM | HL-60 3.16 µM | HOP-62 27.8 µM | HT-29 37 µM | KM-20L2 27 µM | LXFL 529 30.8 µM | M14 26.9 µM | NCI-H226 21.9 µM | NCI-H23 37.5 µM | NCI-H460 13.7 µM | SF-268 13.1 µM | SF-539 15.3 µM | SNB-75 10.7 µM

O=C(/C=C\c1cccc2ccccc12)c1ccc(Cl)cc1Cl
inactive: 786-0 18.7 µM | A498 > 100 µM | A549 62.1 µM | CAKI-1 47.5 µM | HL-60 18.2 µM | HOP-62 > 100 µM | HT-29 17.9 µM | KM-20L2 31 µM | LXFL 529 18.3 µM | M14 19.4 µM | NCI-H226 > 100 µM | NCI-H23 40.6 µM | NCI-H460 23.4 µM | SF-268 19.6 µM | SF-539 25.8 µM | SNB-75 > 100 µM

CCN(C(C)=N)c1ccccc1
inactive: 786-0 > 100 µM | A498 37.5 µM | A549 > 100 µM | CAKI-1 95.1 µM | HL-60 32.8 µM | HOP-62 66.4 µM | KM-20L2 > 100 µM | LXFL 529 75.9 µM | M14 > 100 µM | NCI-H226 56.8 µM | NCI-H23 54.8 µM | NCI-H460 > 100 µM | SF-268 > 100 µM | SF-539 > 100 µM | SNB-75 37.5 µM

CC(=O)NNc1nc(C)c(C(/C=C/c2ccc(Cl)cc2)=N/NC(=O)C[N+](C)(C)C)s1
inactive: 786-0 > 100 µM | A498 > 100 µM | A549 > 100 µM | CAKI-1 > 100 µM | HL-60 > 100 µM | HT-29 > 100 µM | KM-20L2 > 100 µM | LXFL 529 > 100 µM | M14 > 100 µM | NCI-H226 > 100 µM | NCI-H23 > 100 µM | NCI-H460 > 100 µM | SF-268 > 100 µM | SF-539 > 100 µM | SNB-75 > 100 µM

CN(C)CCNC(=O)c1cccc2nc3c(Cl)cccc3nc12
inactive: 786-0 7.98 µM | A498 4.63 µM | A549 4.33 µM | CAKI-1 > 20.7 µM | HL-60 6.43 µM | HOP-62 5.66 µM | HT-29 3.18 µM | KM-20L2 5.52 µM | LXFL 529 9.84 µM | M14 6.24 µM | NCI-H226 3.55 µM | NCI-H23 5.61 µM | SF-539 4.75 µM | SNB-75 7.48 µM
